Source: patent US20060030537A1, “Ceramide kinase and uses thereof” (priority 2004, published 2006)

Legend:
L929 fibroblasts = assay: PGE2 synthesis in L929 fibroblasts; format: cell-based; conditions: L929 fibroblasts
Protocol: FIGS. 3A-3B. FIG. 3A. The effects of ceramide-1-phosphate on TXB2 synthesis. A549 cells (1×10^5) were treated with D-e-C16 ceramide-1-phosphate (1 μM) solubilized in 2% dodecane/98% ethanol (final concentration in treatments was 0.002% dodecane/0.098% ethanol (EtOH)) for the indicated times. The results are presented as % control of TXB2 controlled for equivalent number of cells by MTT assay. Data are representative of 3 separate determinations on 2 separate occasions. FIG. 3B. The effects of ceramide-1-phosphate on AA release and PGE2 synthesis in L929 fibroblasts. L929 cells (5×10^4) were labeled overnight with 5 μCi/mL [^3H]-arachidonic acid (5 nM). Cells were washed and placed in DMEM supplemented with 2% fetal bovine serum for two hours. Cells were then treated with 2.5 μM D-e-C16 ceramide-1-phosphate (solubilized in 98% ethanol/2% dodecane) for the indicated times. […]
Quantification of prostaglandin E2 and thromboxane B2 synthesis: For measurement of PGE2 and TXB2 levels, aliquots of media were taken at indicated time points and assayed according to manufacturer's instructions using the prostaglandin E2 and thromboxane B2 monoclonal EIA Kit from Cayman Chemical. […] Results were controlled for equivalent number of cells quantified by MTT assay.

ceramide kinase mRNA = assay: RT-PCR of ceramide kinase mRNA in A549 cells; format: cell-based, human; conditions: 26 hours after transfection, normalized to 18s ribosomal RNA
Protocol: FIGS. 6A-6B. Ceramide kinase RNAi downregulates endogenous ceramide kinase activity and mRNA levels. FIG. 6A. The effect of ceramide kinase RNAi on endogenous ceramide kinase activity. A549 cells (5×10^4) were transfected with the 21-nucleotide duplexes for ceramide kinase or scrambled control sequence. Following the 4 hour transfection, cells incubated in normal growth media for 26 hours. Cells were then washed, lysed in assay buffer, and assayed for ceramide kinase activity. Data are presented as % control ceramide kinase activity with control RNAi (Control) or ceramide kinase RNAi (CerK RNAi). Data are representative of three separate determinations on two separate occasions. FIG. 6B. The effect of ceramide kinase RNAi on the mRNA levels of ceramide kinase. Following the same procedure as outlined in FIG. 6A, total RNA was extracted and analyzed via logarithmic reverse-transcriptase polymerase chain reaction for human ceramide kinase and 18s ribosomal RNA. Data are presented as percent control after the densitometry of ceramide kinase mRNA was normalized to 18s ribosomal RNA levels with control RNAi (Control) or ceramide kinase RNAi (CerK RNAi). Data are representative of three separate determinations on two separate occasions. […]

sphingosine kinase-1 = assay: Immunoreactive levels of sphingosine kinase-1 after ceramide kinase RNAi; format: cell-based; conditions: cells transfected with RNAi targeted to ceramide kinase
ceramide kinase = assay: Ceramide kinase assay on lysates of treated or transfected A549 cells; format: cell-based, human; conditions: 26 hours after transfection
Protocol: FIGS. 5A-5C. IL-1β and calcium ionophore increase ceramide-1-phosphate production and ceramide kinase activity. FIGS. 5A and 5B. The effect of IL-1 and A23187 on C-1-P levels and AA liberation. A549 cells (2×10^5) were labeled overnight with 10 μCi/mL [^3H]-arachidonic acid (10 nM), washed, and then treated with either 2.5 ng/mL of IL-1β (FIG. 5A) or 1 μg/mL of A23187 (FIG. 5B) for the indicated times. Two hours prior to Bligh-Dyer extraction, cells were chased with 20 μM of D-e-C6 NBD-ceramide (Matreya). At the appropriate times, media was taken for AA analysis, and lipids from the cells were extracted by the Bligh-Dyer method followed by analysis of NBD-C-1-P formation. Data are presented as % control of C-1-P levels (J) and AA release (B). Data are representative of three separate determinations on 2 separate occasions. FIG. 5C. IL-1β and calcium ionophore increase ceramide kinase activity. A549 cells (5×10^5) were treated with either 2.5 ng/mL of IL-1β for 3.5 hours or 1 μg/mL of A23187 for 5 minutes. Cells were then washed, lysed in assay buffer, and assayed for ceramide kinase activity. Data is presented as % control of ceramide kinase activity (Arbitrary densitometry units of fluorescent NBD-C-1-P produced/min/mg of total cellular protein). Data are representative of three separate determinations on 2 separate occasions.
FIGS. 6A-6B. Ceramide kinase RNAi downregulates endogenous ceramide kinase activity and mRNA levels. FIG. 6A. The effect of ceramide kinase RNAi on endogenous ceramide kinase activity. […] Following the same procedure as outlined in FIG. 6A, total RNA was extracted and analyzed via logarithmic reverse-transcriptase polymerase chain reaction for human ceramide kinase and 18s ribosomal RNA. […]
Ceramide Kinase Assay: Ceramide kinase activity was measured as described previously with slight modifications (Bajjalieh, S., and Batchelor, R. (2001) Methods Enzymol. 311, 207-215). […] Following Bligh-Dyer extraction, lipids were separated by thin layer chromatography, and NBD-C-1-P was visualized/quantified by fluorescent phosphorimaging.

In the case of “ceramide kinase RNAi: 21-nucleotide duplex, human ceramide kinase RNAi starting 142 nucleotides from start codon (SEQ ID NO: 3 and 4) (chain 1 UGCCUGCUCUGUGCCUGUATT; chain 2 UACAGGCACAGAGCAGGCATT; chemistry not given here)”, the “inhibition of PGE2 synthesis in response to IL-1β” value (L929 fibroblasts) is reported as “over 60%”, the “decrease of ceramide kinase mRNA levels” value (ceramide kinase mRNA) is reported as 73% and the “immunoreactive levels of sphingosine kinase-1” value (sphingosine kinase-1) is reported as “no decrease”. For the same substance, the “decrease of endogenous ceramide kinase activity” value (ceramide kinase) was 67%.
